Here are results for ten compounds from patent US20160355530A1, “HEPATITIS C INHIBITORS AND USES THEREOF” (AbbVie Inc., priority 2010, published 2016).

Read-outs that look alike come from different tables or passages of the source.

For assay [1], the system named is HCV 1b-BB7 subgenomic replicon. Put plainly: microbe, parasite or virus in culture. Format: cell-based, HCV genotype 1b. Conditions: Hepatitis C virus, stable replicon.
The subject of assay [2] is HCV 1a-H77 subgenomic replicon. Put plainly: microbe, parasite or virus in culture. Conditions: Hepatitis C virus, stable replicon. Type of assay: cell-based, HCV genotype 1a.
The target of assay [3] is T1, HCV NS5B polymerase 1b BK strain (Hepatitis C virus genotype 1b, UniProt P26663).
T1 construct: six-histidine tag; made in house; host or cells: E. coli
T1 sequence (P26663 2420-2989): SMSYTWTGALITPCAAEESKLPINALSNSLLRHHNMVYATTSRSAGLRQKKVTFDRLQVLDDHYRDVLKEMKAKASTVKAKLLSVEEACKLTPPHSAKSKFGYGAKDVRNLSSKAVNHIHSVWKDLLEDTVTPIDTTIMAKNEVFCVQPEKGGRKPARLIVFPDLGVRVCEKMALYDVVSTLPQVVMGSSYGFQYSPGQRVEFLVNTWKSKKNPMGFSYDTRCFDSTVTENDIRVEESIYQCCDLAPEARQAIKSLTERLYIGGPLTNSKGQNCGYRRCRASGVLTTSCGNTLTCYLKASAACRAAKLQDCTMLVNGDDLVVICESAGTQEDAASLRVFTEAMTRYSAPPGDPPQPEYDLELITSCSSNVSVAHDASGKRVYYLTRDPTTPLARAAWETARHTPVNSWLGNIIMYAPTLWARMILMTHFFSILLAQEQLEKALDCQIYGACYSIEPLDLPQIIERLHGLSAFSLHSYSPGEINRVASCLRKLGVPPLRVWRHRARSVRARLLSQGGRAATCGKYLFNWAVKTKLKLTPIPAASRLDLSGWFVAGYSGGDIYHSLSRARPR
Put plainly: HCV NS5B polymerase enzymatic inhibition assay, strain 1b BK. Format: biochemical. The following applies: enzyme, strain 1b BK; read-out: HCV Polymerase Strain 1b BK IC50. In outline:
(§1)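 Recombinant NS5B (residues 1–570, His-tagged, E. coli-expressed) copied 5 nM of a 2.1 kb HCV 1b negative-strand 3′-end RNA template with 20 μM CTP, 20 μM ATP and 0.284 μM [3H]UTP for 3 h at 30 °C. Spermine-precipitated RNA was filter-captured and counted, and IC50 was fitted by nonlinear regression.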

For assay [4], the target named is T2, HCV NS5B polymerase 1a-H77-C316Y (Hepatitis C virus genotype 1a, UniProt P27958, C2736Y).
T2 construct: six-histidine tag; made in house; host or cells: E. coli
T2 sequence (P27958 2421-2990 C2736Y): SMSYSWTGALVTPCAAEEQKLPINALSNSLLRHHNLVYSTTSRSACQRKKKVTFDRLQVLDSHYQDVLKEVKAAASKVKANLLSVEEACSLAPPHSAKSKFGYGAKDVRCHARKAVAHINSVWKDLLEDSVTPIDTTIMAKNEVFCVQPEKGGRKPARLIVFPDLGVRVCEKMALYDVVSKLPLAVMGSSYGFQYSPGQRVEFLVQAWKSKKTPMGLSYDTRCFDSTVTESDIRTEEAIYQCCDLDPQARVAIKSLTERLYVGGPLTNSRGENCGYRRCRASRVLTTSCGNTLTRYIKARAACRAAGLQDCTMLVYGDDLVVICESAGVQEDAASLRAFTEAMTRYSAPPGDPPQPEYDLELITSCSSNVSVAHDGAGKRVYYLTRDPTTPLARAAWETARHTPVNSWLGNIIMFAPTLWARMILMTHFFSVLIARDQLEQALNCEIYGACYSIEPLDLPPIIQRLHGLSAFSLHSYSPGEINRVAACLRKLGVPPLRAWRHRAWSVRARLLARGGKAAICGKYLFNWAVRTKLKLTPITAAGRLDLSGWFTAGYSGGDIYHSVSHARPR
Put plainly: biochemical. On the set-up: species or system HCV genotype 1a. In outline:
as §1

Assay [5] has as its system HCV NS5B polymerase 1a-H77-C316Y. Nature of the assay: biochemical. Set-up: species or system HCV genotype 1a. Conditions: ratio of enzyme IC50s, 1a H77-C316Y / 1a H77. In a few lines: as §1
Assay [6] concerns the target T3, HCV NS5B polymerase 1a-H77 (Hepatitis C virus genotype 1a, UniProt P27958).
T3 construct: six-histidine tag; made in house; host or cells: E. coli
Nature of the assay: biochemical. On the set-up: species or system HCV genotype 1a. The following applies: enzyme, strain 1a H77; read-out: HCV Polymerase Strain 1a H77 IC50. In a few lines:
as §1

The mark [7] stands for this setting: strain 1b BB7, 5% FBS + 40% human plasma, read-out: 1b BB7 5% FBS + 40% Human Plasma EC50.
The mark [8] stands for this setting: strain 1b BB7, 5% FBS, no human plasma, read-out: 1b BB7 5% FBS EC50.
Where [9] appears, read: strain 1b BB7, 5% FBS, read-out: 1b BB7 5% FBS EC50.
[10] abbreviates: 5% FBS, absence of human plasma, read-out: Stable Replicon 1a H77 5% FBS EC50.
[11] abbreviates: strain 1a H77, 5% FBS + 40% human plasma, read-out: 1a H77 5% FBS + 40% Human Plasma EC50.
[12] abbreviates: strain 1a H77, 5% FBS, no human plasma, read-out: 1a H77 5% FBS EC50.
The mark [13] stands for this setting: strain 1a H77, 5% FBS, read-out: 1a H77 5% FBS EC50.

T3 sequence (P27958 2421-2990): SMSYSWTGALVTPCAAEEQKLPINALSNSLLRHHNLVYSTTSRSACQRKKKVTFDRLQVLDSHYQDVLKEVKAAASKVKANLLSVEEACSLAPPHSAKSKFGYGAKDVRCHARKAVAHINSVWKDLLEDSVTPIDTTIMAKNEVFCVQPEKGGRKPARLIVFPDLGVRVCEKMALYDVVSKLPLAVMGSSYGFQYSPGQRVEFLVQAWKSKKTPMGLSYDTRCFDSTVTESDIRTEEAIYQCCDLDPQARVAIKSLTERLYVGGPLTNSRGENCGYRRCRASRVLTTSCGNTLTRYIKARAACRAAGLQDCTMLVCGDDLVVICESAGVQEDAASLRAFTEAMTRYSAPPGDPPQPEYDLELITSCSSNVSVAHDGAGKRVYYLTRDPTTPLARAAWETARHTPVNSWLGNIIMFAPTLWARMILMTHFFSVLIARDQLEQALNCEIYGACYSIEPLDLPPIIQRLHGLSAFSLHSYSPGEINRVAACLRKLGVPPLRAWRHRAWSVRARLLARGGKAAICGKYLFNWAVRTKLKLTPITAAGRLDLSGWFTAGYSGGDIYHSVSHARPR

With `CS(=O)(=O)N(CCCC(=O)N1CCCCC1)c1cc2oc(-c3ccc(F)cc3)c(-c3ncc[nH]3)c2cc1C1CC1` [Example 104, N-[5-cyclopropyl-2-(4-fluorophenyl)-3-(1H-imidazol-2-yl)-1-benzofuran-6-yl]-N-[4-oxo-4-(piperidin-1-yl)butyl]methanesulfonamide], the EC50 in assay [1] (setting [7]) worked out at 268 nM; in assay [1] (setting [8]), 13.3 nM; in assay [1] (setting [9]), 13.3 nM; in assay [2] (setting [10]) it was 31.9 nM; in assay [2] (setting [11]) it was 502 nM; in assay [2] (setting [12]), 31.9 nM. Further, in assay [2] (setting [13]), the EC50 was 31.9 nM. Also, the IC50 is 52 nM in assay [3], 180 nM in assay [4] and 6.9 nM in assay [6]. In addition, in assay [5], the “C316Y/1a Fold Resistance” value came out at 26 fold.

With `CS(=O)(=O)NC(=O)CCCN(c1cc2oc(-c3ccc(F)cc3)c(-c3ncc[nH]3)c2cc1C1CC1)S(C)(=O)=O` [Example 105, 4-{[5-cyclopropyl-2-(4-fluorophenyl)-3-(1H-imidazol-2-yl)-1-benzofuran-6-yl](methylsulfonyl)amino}-N-(methylsulfonyl)butanamide], the EC50 is 519 nM in assay [1] (setting [7]); 68.6 nM in assay [1] (setting [8]); 68.6 nM in assay [1] (setting [9]); 108 nM in assay [2] (setting [10]); 1060 nM in assay [2] (setting [11]); 108 nM in assay [2] (setting [12]). For the same compound, the EC50 in assay [2] (setting [13]) amounted to 108 nM. Also, the IC50 in assay [3] stood at 16 nM; in assay [4], 111 nM; in assay [6], 8 nM. The “C316Y/1a Fold Resistance” value in assay [5] stood at 14 fold.

Take `CC(C)(O)C(=O)CCN(c1cc2oc(-c3ccc(F)cc3)c(-c3ncc[nH]3)c2cc1C1CC1)S(C)(=O)=O` [Example 106, N-[5-cyclopropyl-2-(4-fluorophenyl)-3-(1H-imidazol-2-yl)-1-benzofuran-6-yl]-N-(4-hydroxy-4-methyl-3-oxopentyl)methanesulfonamide]: the EC50 stood at 221 nM in assay [1] (setting [7]); 27.3 nM in assay [1] (setting [8]); 27.3 nM in assay [1] (setting [9]); 54.4 nM in assay [2] (setting [10]); 915 nM in assay [2] (setting [11]); 54.4 nM in assay [2] (setting [12]). For the same compound, the EC50 in assay [2] (setting [13]) was 54.4 nM. In addition, the IC50 was determined as 19 nM in assay [3], 101 nM in assay [4] and 7.3 nM in assay [6]. Besides, in assay [5], the “C316Y/1a Fold Resistance” value was 14 fold.

For the compound `CS(=O)(=O)N(CCC(O)CO)c1cc2oc(-c3ccc(F)cc3)c(-c3ncc[nH]3)c2cc1C1CC1` (stereo not drawn) [Example 110, N-[5-cyclopropyl-2-(4-fluorophenyl)-3-(1H-imidazol-2-yl)-1-benzofuran-6-yl]-N-(3,4-dihydroxybutyl)methanesulfonamide], the EC50 in assay [1] (setting [7]) worked out at 315 nM; in assay [1] (setting [8]), 16.7 nM; in assay [1] (setting [9]), 16.7 nM; in assay [2] (setting [10]), 14.3 nM; in assay [2] (setting [11]), 206 nM; in assay [2] (setting [12]), 14.3 nM. The EC50 in assay [2] (setting [13]) is 14.3 nM. Also, the IC50 in assay [3] was found to be 12 nM; in assay [4], 125 nM; in assay [6] it was 6.5 nM. In addition, the “C316Y/1a Fold Resistance” value in assay [5] is 19 fold.

Regarding `CS(=O)(=O)N(CCN)c1cc2oc(-c3ccc(F)cc3)c(-c3ncc[nH]3)c2cc1C1CC1` [Example 111, N-(2-aminoethyl)-N-[5-cyclopropyl-2-(4-fluorophenyl)-3-(1H-imidazol-2-yl)-1-benzofuran-6-yl]methanesulfonamide], the EC50 in assay [1] (setting [7]) was determined as 92 nM; in assay [1] (setting [8]), 40.4 nM; in assay [1] (setting [9]) it was 40.4 nM; in assay [2] (setting [10]), 152 nM; in assay [2] (setting [11]), 1000 nM; in assay [2] (setting [12]) it was 152 nM. In assay [2] (setting [13]), the EC50 came to 152 nM. Besides, the results for the IC50 in assay [3], in assay [4] and in assay [6] were 111 nM, 2000 nM and 9.9 nM, respectively. Also, in assay [5], the “C316Y/1a Fold Resistance” value is recorded as 201 fold.

As to `CS(=O)(=O)N(CCCN)c1cc2oc(-c3ccc(F)cc3)c(-c3ncc[nH]3)c2cc1C1CC1` [Example 112, N-(3-aminopropyl)-N-[5-cyclopropyl-2-(4-fluorophenyl)-3-(1H-imidazol-2-yl)-1-benzofuran-6-yl]methanesulfonamide], the EC50 in assay [1] (setting [7]) stood at 101 nM; in assay [1] (setting [8]), 34 nM; in assay [1] (setting [9]) it was 34 nM; in assay [2] (setting [10]), 262 nM; in assay [2] (setting [11]), 1030 nM; in assay [2] (setting [12]), 262 nM. For the same compound, the EC50 in assay [2] (setting [13]) was 262 nM. Moreover, the values for the IC50 in assay [3], in assay [4] and in assay [6] were 51 nM, 868 nM and 10.6 nM, respectively. Moreover, the “C316Y/1a Fold Resistance” value in assay [5] amounted to 82 fold.

Regarding `COc1ccc(CN(c2cc3oc(-c4ccc(F)cc4)c(-c4nc(Cl)c[nH]4)c3cc2C2CC2)S(C)(=O)=O)cc1` [Example 159, N-[3-(4-chloro-1H-imidazol-2-yl)-5-cyclopropyl-2-(4-fluorophenyl)-1-benzofuran-6-yl]-N-(4-methoxybenzyl)methanesulfonamide], the EC50 in assay [1] (setting [7]) was determined as 10000 nM; in assay [1] (setting [8]) it was 544 nM; in assay [1] (setting [9]) it was 544 nM; in assay [2] (setting [10]) it was 990 nM; in assay [2] (setting [11]) it was 10000 nM; in assay [2] (setting [12]), 990 nM. For the same compound, the EC50 in assay [2] (setting [13]) came out at 990 nM. For the same compound, the IC50 in assay [3] came out at 438 nM; in assay [4] it was 8000 nM; in assay [6], 45 nM. Further, in assay [5], the “C316Y/1a Fold Resistance” value was 178 fold.

As to `CC(C)CCN(c1cc2oc(-c3ccc(F)cc3)c(-c3nccc(=O)[nH]3)c2cc1C1CC1)S(C)(=O)=O` [Example 161, N-[5-cyclopropyl-2-(4-fluorophenyl)-3-(6-oxo-1,6-dihydropyrimidin-2-yl)-1-benzofuran-6-yl]-N-(3-methylbutyl)methanesulfonamide], the EC50 was 10000 nM in assay [1] (setting [7]); 188 nM in assay [1] (setting [8]); 188 nM in assay [1] (setting [9]); 124 nM in assay [2] (setting [10]); 7910 nM in assay [2] (setting [11]); 124 nM in assay [2] (setting [12]). In assay [2] (setting [13]), the EC50 was found to be 124 nM. For the same compound, the IC50 in assay [3] was determined as 791 nM; in assay [4], 219 nM; in assay [6], 47.5 nM. For the same compound, in assay [5], the “C316Y/1a Fold Resistance” value is on record as 5 fold.

Consider `COc1ccc(CN(c2cc3oc(-c4ccc(F)cc4)c(-c4ncc[nH]4)c3cc2OC(C)C)S(C)(=O)=O)cc1` [Example 170, N-[2-(4-fluorophenyl)-3-(1H-imidazol-2-yl)-5-isopropoxy-1-benzofuran-6-yl]-N-(4-methoxybenzyl)methanesulfonamide], for which the EC50 came to 121 nM in assay [1] (setting [8]); 121 nM in assay [1] (setting [9]); 540 nM in assay [2] (setting [10]); 540 nM in assay [2] (setting [12]); 540 nM in assay [2] (setting [13]). In addition, the IC50 in assay [3] is 338 nM; in assay [4], 20000 nM; in assay [6] it was 36 nM. For the same compound, the “C316Y/1a Fold Resistance” value in assay [5] is 556 fold.

As to `COc1ccc(CN(c2cc3oc(-c4ccc(F)cc4)c(-c4ncc(C)[nH]4)c3cc2C2CC2)S(C)(=O)=O)cc1` [Example 188, N-[5-cyclopropyl-2-(4-fluorophenyl)-3-(5-methyl-1H-imidazol-2-yl)-1-benzofuran-6-yl]-N-(4-methoxybenzyl)methanesulfonamide], the half-maximal effective concentration (EC50) in assay [1] (setting [7]) turned out to be 2030 nM; in assay [1] (setting [8]) it was 208 nM; in assay [1] (setting [9]) it was 208 nM; in assay [2] (setting [10]), 399 nM; in assay [2] (setting [11]), 8460 nM; in assay [2] (setting [12]), 399 nM. Also, the EC50 in assay [2] (setting [13]) came out at 399 nM. The IC50 came out at 55 nM in assay [3], 224 nM in assay [4] and 15.4 nM in assay [6]. The “C316Y/1a Fold Resistance” value in assay [5] was 15 fold.
